Results published in publication PMC6934184, “Selective DNA-PKcs inhibition extends the therapeutic index of localized radiotherapy and chemotherapy” (The Journal of Clinical Investigation, 2019).

Biological target: T1, MAP3K11 (MLK3) (Homo sapiens, UniProt Q16584)
T1 construct: purchased Thermo Fisher Scientific (Life Technologies) SelectScreen
Assay: SelectScreen LanthaScreen
Format: binding
Details: 1 µM
Method in brief: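 Percent values come from Thermo SelectScreen profiling of NU5455, combining activity and binding assays. CSF1R was run in Z'LYTE format at Km app ATP, and CAMK1 in Adapta format with ATP listed at 10.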

T1 sequence (Q16584 whole entry): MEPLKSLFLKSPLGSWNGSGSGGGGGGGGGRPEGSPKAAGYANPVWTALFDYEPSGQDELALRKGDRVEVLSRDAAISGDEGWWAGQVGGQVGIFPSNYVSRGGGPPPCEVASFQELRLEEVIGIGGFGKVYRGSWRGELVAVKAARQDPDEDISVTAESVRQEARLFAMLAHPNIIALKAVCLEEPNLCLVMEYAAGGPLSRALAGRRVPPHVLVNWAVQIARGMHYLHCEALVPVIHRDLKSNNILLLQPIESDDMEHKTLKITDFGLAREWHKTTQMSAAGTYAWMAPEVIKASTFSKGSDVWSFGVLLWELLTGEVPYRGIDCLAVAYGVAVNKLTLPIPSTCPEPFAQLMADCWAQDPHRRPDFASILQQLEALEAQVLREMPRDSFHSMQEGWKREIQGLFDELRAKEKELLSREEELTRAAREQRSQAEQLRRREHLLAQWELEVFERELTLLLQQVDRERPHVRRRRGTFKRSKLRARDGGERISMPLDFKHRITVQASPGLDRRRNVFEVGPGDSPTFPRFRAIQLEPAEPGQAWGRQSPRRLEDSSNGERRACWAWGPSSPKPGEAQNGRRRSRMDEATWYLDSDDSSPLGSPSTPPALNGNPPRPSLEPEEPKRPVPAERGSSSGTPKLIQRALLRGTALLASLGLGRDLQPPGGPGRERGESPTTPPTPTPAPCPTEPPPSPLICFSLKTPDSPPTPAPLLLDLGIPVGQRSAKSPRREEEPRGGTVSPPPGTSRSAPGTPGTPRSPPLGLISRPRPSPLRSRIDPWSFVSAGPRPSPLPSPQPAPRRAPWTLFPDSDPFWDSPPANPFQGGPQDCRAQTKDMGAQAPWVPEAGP

For `CN(C(=O)CN1CCOCC1)c1ccc2sc3c(-c4cccc5c(=O)cc(N6CC7CCC(C6)O7)oc45)cccc3c2c1` [NU5455], the “% displacement” value was 4.0%.
